Source: patent US12329769B2, “Use of Abelmoschi corolla extract in preparation of drug for treating fibrosis” (SUZHONG PHARMACEUTICAL GROUP CO., LTD., priority 2019, dated 2025)

Legend:
[1] = system: fibrosis of NRK-49F cells stimulated by TGF-β1; assay: In-vitro anti-fibrosis effect: WB of Collagen I and α-SMA in NRK-49F cells stimulated by TGF-β1; assay type: cell-based; conditions: 30 μM monomer constituent, added 30 minutes before TGF-β1, co-incubation 24 hours, FIG. 3
Experimental: NRK-49F cells were inoculated into a 6-well plate at a density of 5×10^5 cells/well, and cultured in a DMEM medium containing 10% fetal bovine serum for 16 hours. After adding 50 μg/mL Abelmoschi corolla extract and each elution fraction constituent of macroporous resin and 30 μM monomer constituent of Abelmoschus manihot for 30 minutes, 10 mg/mL TGF-β1 was added. After co-incubation for 24 hours, cell proteins were extracted for a WB experiment to detect expression of Collagen I and α-SMA proteins, so as to judge the in-vitro anti-fibrosis effects of the Abelmoschi corolla extract and each elution constituent of macroporous resin and the monomer constituent.

[2] = system: NRK-49F cells; assay: MTT test of effect on activity of NRK-49F cells; assay type: cell-based; conditions: 30 μM monomer constituent, co-incubation 24 hours
Experimental: NRK-49F cells were inoculated into a 96-well plate at a density of 5×10^3 cells/well, and cultured in a DMEM medium containing 10% fetal bovine serum for 16 hours. 50 μg/mL gradient elution constituent solution of macroporous resin of an Abelmoschi corolla extract or 30 μM of monomer constituents of the Abelmoschi corolla extract were added. After co-incubation for 24 hours, an original culture solution was removed, and 100 μL of 0.5 mg/mL MTT was added into each well. After incubation in an incubator for 4 hours, a staining solution was removed, and 150 μL of DMSO was added for detection by a microplate reader.

activity of the NRK-49F cells (MTT) [2]	Structure (SMILES)	expression of Collagen I protein (WB) [1]	expression of α-SMA protein (WB) [1]
	O=C(O)C1OC(Oc2c(O)cc(O)c3c(=O)c(OC4OC(CO)C(O)C(O)C4O)c(-c4ccc(O)c(O)c4)oc23)C(O)C(O)C1O [compound 6, Gossypetin-3-O-β-D-glucose-8-O-β-D-glucuronide]	significantly inhibit	significantly inhibit
significantly inhibit	O=c1c(O)c(-c2cc(O)c(O)c(O)c2)oc2cc(O)cc(O)c12 [compound 18, Myricetin]		
	O=c1c(O)c(-c2ccc(O)c(O)c2)oc2cc(O)cc(O)c12 [compound 20, Quercetin]	significantly inhibit	significantly inhibit
